Experimental data reported in article PMC8453114 (Journal of molecular biology, 2021).

The molecules below were run against T1, HTLV-1 myr(−)MA (Human T-cell leukemia virus type I, UniProt Q9QR99) (assay: 1H-15N HSQC NMR titration).
Assay type: binding

Row | SMILES | Kd [µM]
1 | O=P(O)(O)O[C@@H]1[C@H](O)[C@H](O)[C@@H](OP(=O)(O)O)[C@H](OP(=O)(O)O)[C@H]1O [IP3, inositol 1,4,5-trisphosphate] | 338 ± 42
2 | O=P(O)(O)O[C@H]1[C@H](OP(=O)(O)O)[C@@H](OP(=O)(O)O)[C@H](OP(=O)(O)O)[C@@H](OP(=O)(O)O)[C@H]1OP(=O)(O)O [IP6, inositol hexakisphosphate] | 23 ± 11
3 | CCCC(=O)OC[C@H](COP(=O)(O)O[C@@H]1[C@H](O)[C@H](O)[C@@H](OP(=O)(O)O)[C@H](OP(=O)(O)O)[C@H]1O)OC(=O)CCC [diC4-PI(4,5)P2] | 306 ± 30
4 | CCCCCC(=O)OC[C@H](COP(=O)(O)O[C@@H]1[C@H](O)[C@H](O)[C@@H](OP(=O)(O)O)[C@H](OP(=O)(O)O)[C@H]1O)OC(=O)CCCCC [diC6-PI(4,5)P2] | 195 ± 19

Each molecule was assayed against T1, HTLV-1 myr(−)MA (assay: 1H NMR liposome).
Assay type: binding

Row | SMILES | Kd [µM]
5 | CCCCCCCC/C=C\CCCCCCCC(=O)O[C@H](COC(=O)CCCCCCCCCCCCCCC)COP(=O)(O)OC[C@H](N)C(=O)O [POPS, 1-palmitoyl-2-oleoyl-sn-glycero-3-phospho-L-serine] | 118 ± 16
6 | CCCCCCCCCCCCCCCC(=O)OC[C@H](COP(=O)(O)O[C@@H]1[C@H](O)[C@H](OP(=O)(O)O)[C@@H](O)[C@H](OP(=O)(O)O)[C@H]1O)OC(=O)CCCCCCCCCCCCCCC [diC16-PI(3,5)P2, dipalmitoyl-phosphatidylinositol 3,5-bisphosphate] | 32 ± 2
